Data set [1] deals with Cytochrome P450 2C19 (Homo sapiens, UniProt P33261). Put plainly: Cytochrome panel assay with activity outcomes. Panel member name: p450-cyp2c19 Compounds with AC50 equal or less than 10 uM are considered active. Format: functional.
In data set [2] the target is Cytochrome P450 2D6 (Homo sapiens, UniProt P10635).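 Also: CYP2D6 member of a cytochrome P450 panel assay.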
The target in data set [3] is Cytochrome P450 2C9 (Homo sapiens, UniProt P11712).
Data set [4] deals with Glucose-6-phosphate 1-dehydrogenase (Homo sapiens, UniProt P11413). The experiment in a line: inhibition of Homo sapiens G6PD, dose series – biochemical, fluorescence, selectivity assay for P. falciparum G6PD inhibitor project, dose response (AID 504792). The class given is functional.
Data set [5] concerns the target Cytochrome P450 3A4 (Homo sapiens, UniProt P08684).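 Also: CYP3A4 tested as one member of a cytochrome P450 panel screen.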
Data set [6] deals with HeLa. The experiment in a line: ATP-based viability loss in HeLa cells – cell-based, CellTiter-Glo luminescence, cherry-pick samples, cytotoxicity control for MITF activator project, dose response (AID 540259). Format: functional. The note with it: Homo sapiens. (ATP-based viability assays read luminescence as a measure of living cells.)
Data set [7] addresses T1, Oxysterols receptor LXR-beta (Homo sapiens, UniProt P55055).
T1 sequence (P55055 whole entry): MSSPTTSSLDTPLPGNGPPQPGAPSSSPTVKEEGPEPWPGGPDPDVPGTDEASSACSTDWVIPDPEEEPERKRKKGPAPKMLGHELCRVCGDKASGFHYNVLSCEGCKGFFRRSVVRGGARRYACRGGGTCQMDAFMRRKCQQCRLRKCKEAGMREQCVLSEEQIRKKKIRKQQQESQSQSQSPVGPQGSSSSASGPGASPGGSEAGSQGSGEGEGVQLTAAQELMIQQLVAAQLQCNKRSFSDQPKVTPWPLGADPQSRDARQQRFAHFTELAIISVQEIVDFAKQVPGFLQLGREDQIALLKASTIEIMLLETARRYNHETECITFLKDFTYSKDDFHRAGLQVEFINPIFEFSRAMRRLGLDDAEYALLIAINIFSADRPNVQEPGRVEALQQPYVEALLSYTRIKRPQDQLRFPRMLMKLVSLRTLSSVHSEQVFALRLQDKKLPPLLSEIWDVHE
The class given is functional, cell-based.

The test system of data set [8] is HEK293. The experiment in a line: inhibition of NOD1-driven NF-kB reporter – cell-based, luminescence, uHTS, primary screen (AID 1578). Format: functional. The following applies: Homo sapiens.
Data set [9] concerns HEK293. The experiment in a line: cells. The class given is functional, cell-based. The following applies: Homo sapiens.
Data set [10] deals with HEK293. The experiment in a line: cells. Format: functional, cell-based. The following applies: Homo sapiens. This is another data set of the same source.
Data set [11] relates to HEK293. Put plainly: NOD2 signaling inhibitors in MDP-stimulated cells, cell-based, uHTS, luminescence (AID 2001). The class given is functional. The note with it: Homo sapiens.
The target of data set [12] is T2, RNA-binding protein pos-1 (Caenorhabditis elegans, UniProt G5EF15).
T2 sequence (G5EF15 whole entry): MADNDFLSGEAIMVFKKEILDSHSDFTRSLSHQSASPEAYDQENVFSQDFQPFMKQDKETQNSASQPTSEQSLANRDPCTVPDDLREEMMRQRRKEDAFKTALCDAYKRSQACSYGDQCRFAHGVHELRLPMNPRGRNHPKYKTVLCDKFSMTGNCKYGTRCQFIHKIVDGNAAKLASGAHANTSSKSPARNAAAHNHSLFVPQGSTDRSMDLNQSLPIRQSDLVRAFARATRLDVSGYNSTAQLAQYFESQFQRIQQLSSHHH
The experiment in a line: disruptors of C. elegans POS-1 RNA interaction – biochemical, fluorescence polarization, dose response (AID 1964).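 Also: purified POS-1 fused to maltose binding protein made in E. coli; potency of compounds blocking POS-1 binding to fluorescent RNA.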 For orientation: Fluorescence polarisation rises when a labelled molecule tumbles more slowly, as on binding a larger partner.

Data set [13] deals with T3, Zinc finger protein mex-5 (Caenorhabditis elegans, UniProt Q9XUB2).
T3 sequence (Q9XUB2 whole entry): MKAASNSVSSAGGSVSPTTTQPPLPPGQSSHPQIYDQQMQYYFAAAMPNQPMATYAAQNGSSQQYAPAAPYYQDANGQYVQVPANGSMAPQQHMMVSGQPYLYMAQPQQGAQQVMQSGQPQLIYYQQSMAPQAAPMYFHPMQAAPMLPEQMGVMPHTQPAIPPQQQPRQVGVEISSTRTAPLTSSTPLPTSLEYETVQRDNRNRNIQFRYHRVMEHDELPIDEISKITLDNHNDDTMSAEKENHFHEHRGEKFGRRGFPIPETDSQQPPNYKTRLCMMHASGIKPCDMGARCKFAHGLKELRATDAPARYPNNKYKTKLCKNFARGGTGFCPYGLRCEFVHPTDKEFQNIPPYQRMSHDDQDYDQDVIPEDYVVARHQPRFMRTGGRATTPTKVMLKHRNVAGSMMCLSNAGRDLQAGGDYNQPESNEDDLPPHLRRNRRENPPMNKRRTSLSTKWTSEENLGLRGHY
The experiment in a line: potency of MEX-5 RNA-binding blockers – biochemical, C. elegans, fluorescence polarization, dose response (AID 1960).

Data set [14] concerns the target T4, Rac GTPase-activating protein 1 (Homo sapiens, UniProt Q9H0H5).
T4 sequence (Q9H0H5 whole entry): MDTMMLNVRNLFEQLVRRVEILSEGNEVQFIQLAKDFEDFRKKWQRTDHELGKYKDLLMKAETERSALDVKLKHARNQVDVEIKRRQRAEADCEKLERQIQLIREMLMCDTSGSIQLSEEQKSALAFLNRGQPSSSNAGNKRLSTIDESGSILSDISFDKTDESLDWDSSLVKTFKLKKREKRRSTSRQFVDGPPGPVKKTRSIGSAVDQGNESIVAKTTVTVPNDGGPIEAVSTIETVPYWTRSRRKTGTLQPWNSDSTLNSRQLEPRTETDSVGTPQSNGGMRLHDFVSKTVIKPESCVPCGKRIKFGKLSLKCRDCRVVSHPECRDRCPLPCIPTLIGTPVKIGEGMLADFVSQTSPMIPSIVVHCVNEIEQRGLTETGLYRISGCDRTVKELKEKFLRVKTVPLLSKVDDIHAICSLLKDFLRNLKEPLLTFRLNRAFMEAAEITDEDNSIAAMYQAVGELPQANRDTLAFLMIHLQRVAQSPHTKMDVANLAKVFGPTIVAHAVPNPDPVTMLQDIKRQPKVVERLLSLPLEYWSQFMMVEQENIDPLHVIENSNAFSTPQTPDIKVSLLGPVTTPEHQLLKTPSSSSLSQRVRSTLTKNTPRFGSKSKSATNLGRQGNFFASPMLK
The experiment in a line: blockers of MgcRacGAP-driven Rac1 GTP hydrolysis – biochemical, ADP Hunter fluorescence, primary and confirmatory, confirmation (AID 624330). Format: functional.

A short description of data set [15]: HIV-1 AD8 envelope cell-cell fusion blockers – cherry-pick, dose response (AID 652062).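 Also: luciferase signal from cell-cell fusion driven by HIV-1 clade B AD8 Env; potency is for inhibitors of fusion seen as a drop in luminescence.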 The class given is functional, cell-based.
The target of data set [16] is T5, Cytochrome P450 1A2 (Homo sapiens, UniProt P05177).
T5 sequence (P05177 whole entry): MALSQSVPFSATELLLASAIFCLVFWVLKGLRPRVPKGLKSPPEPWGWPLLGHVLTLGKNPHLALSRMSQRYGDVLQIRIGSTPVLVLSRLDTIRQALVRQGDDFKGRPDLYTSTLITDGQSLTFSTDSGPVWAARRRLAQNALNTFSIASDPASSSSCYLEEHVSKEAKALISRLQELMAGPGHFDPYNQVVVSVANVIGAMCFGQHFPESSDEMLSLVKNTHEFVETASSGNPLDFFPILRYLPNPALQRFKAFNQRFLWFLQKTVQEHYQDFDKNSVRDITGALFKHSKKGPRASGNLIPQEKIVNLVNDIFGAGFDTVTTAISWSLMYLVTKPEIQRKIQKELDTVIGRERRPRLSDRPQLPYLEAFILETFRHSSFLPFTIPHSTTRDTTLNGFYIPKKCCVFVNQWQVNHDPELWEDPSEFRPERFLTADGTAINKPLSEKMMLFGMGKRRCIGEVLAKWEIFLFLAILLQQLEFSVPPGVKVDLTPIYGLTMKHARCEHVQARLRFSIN

Data set [17] is described as follows: blockers of HIV-1 envelope-mediated cell-cell fusion – cherry-pick, dose response (AID 652057). The class given is functional, cell-based.
Data set [18] is described as follows: off-target signal loss in HeLa-CEM21 co-culture – HeLa F-luc CTL cells, cherry-picked, counter-screen for HIV-1 Env fusion inhibitor project, dose response (AID 652040).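 Also: potency for signal decrease marking cytotoxic or nonspecific inhibition.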 The class given is functional, cell-based. A general note: The purpose of a counterscreen is to sort out artefacts and off-target activity.
Data set [19] is described as follows: blockers of HIV-1 ZM109 envelope-driven cell-cell fusion – HeLa effector, CEM target cells, luciferase, cherry-pick, dose response (AID 652058).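 Also: luciferase signal from HIV-1 Env mediated cell-cell fusion of effector and target cells.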 The class given is functional, cell-based.
Data set [20] in a line: viability loss in CEM21 cells – cell-based, CellTiter-Glo luminescence, cherry-picked, cytotoxicity control for viral fusion inhibitor project, dose response (AID 652042).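 Also: potency for signal decrease meaning cytotoxicity.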 The class given is functional.
Data set [21] addresses Beta-galactosidase (Escherichia coli, UniProt Q8VNN2). The experiment in a line: PubChem AID 485352. Format: functional.
Data set [22] concerns the target T6, Type-1 angiotensin II receptor (Homo sapiens, UniProt P30556).
T6 sequence (P30556 whole entry): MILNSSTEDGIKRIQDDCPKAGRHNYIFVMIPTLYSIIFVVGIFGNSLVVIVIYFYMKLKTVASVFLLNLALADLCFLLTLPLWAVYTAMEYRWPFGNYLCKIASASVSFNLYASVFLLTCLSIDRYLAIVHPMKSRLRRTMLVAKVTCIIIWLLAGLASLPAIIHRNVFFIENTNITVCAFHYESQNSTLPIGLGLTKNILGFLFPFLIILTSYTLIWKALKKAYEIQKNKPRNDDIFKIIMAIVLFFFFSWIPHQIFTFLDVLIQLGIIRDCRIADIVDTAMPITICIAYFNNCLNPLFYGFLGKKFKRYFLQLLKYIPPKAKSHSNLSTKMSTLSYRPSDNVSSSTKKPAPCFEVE
Put plainly: antagonism of angiotensin II type 1 receptor – cell-based, uHTS hits, selectivity assay for APJ receptor antagonist project, dose response (AID 463214).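 Also: antagonist potency against angiotensin II stimulated AT1 response.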 Format: functional.

Calls of active or inactive are those of the source.

Cytochrome P450 2D6, sequence (P10635 whole entry): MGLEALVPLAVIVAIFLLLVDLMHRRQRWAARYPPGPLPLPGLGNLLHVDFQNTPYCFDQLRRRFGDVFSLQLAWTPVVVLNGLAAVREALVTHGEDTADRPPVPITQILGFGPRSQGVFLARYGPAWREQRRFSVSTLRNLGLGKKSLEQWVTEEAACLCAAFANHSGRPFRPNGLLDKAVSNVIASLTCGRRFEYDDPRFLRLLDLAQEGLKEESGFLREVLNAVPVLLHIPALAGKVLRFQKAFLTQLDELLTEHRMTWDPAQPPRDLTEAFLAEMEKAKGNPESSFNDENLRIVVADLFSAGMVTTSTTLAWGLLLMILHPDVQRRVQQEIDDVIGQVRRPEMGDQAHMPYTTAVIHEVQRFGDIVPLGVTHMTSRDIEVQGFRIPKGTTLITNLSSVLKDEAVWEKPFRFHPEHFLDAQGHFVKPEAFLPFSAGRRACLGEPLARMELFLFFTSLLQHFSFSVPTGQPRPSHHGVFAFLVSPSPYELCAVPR
Cytochrome P450 2C9, sequence (P11712 whole entry): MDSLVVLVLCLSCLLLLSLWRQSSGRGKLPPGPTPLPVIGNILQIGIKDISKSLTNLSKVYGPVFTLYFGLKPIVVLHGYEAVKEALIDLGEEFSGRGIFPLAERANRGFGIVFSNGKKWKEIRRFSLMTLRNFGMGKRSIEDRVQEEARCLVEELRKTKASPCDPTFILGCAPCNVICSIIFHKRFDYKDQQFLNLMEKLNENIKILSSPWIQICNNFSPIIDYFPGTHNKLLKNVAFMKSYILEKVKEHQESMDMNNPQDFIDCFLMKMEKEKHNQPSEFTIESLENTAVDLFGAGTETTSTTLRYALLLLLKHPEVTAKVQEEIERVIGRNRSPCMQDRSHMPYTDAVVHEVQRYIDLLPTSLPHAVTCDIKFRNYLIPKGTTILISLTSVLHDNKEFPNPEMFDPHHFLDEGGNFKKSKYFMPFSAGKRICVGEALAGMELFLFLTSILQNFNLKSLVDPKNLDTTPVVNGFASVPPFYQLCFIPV
Glucose-6-phosphate 1-dehydrogenase, sequence (P11413 whole entry): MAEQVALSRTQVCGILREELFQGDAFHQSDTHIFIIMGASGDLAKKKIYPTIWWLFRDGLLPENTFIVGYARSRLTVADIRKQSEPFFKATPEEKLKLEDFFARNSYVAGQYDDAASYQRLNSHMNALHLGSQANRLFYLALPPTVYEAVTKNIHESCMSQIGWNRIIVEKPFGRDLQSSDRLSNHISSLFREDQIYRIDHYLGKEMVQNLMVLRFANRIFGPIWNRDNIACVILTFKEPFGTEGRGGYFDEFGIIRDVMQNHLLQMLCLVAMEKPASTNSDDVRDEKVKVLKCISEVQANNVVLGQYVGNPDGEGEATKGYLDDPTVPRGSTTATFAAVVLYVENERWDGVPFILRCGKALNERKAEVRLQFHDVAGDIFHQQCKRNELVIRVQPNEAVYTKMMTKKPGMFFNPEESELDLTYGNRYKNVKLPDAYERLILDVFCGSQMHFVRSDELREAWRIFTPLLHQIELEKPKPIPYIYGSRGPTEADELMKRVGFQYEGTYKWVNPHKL
Beta-galactosidase, sequence (Q8VNN2 whole entry): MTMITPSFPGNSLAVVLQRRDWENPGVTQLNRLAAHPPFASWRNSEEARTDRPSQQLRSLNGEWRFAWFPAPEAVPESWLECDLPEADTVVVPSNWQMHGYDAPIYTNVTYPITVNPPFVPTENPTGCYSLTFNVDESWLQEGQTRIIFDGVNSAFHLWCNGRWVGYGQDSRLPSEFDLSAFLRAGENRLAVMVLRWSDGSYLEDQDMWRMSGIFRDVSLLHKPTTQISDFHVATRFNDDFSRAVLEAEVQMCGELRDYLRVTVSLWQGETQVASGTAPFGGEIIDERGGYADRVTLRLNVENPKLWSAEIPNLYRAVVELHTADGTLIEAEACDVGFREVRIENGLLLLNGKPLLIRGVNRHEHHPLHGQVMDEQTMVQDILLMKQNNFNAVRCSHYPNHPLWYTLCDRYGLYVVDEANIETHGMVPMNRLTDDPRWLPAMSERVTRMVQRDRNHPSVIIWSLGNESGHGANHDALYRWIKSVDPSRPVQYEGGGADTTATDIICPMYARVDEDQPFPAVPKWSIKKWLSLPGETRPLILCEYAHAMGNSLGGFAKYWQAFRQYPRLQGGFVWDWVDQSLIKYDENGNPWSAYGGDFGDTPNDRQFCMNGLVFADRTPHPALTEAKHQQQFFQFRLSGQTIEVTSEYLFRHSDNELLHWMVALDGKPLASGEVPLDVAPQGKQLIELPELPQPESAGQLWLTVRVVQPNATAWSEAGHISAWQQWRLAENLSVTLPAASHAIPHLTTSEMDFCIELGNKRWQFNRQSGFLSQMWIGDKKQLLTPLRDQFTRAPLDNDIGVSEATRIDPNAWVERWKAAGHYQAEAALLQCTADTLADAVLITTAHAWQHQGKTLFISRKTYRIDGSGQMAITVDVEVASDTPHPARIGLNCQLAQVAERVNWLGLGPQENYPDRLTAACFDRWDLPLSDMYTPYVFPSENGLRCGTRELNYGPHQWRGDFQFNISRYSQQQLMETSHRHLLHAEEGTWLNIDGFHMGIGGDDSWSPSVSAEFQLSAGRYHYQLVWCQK
Cytochrome P450 2C19, sequence (P33261 whole entry): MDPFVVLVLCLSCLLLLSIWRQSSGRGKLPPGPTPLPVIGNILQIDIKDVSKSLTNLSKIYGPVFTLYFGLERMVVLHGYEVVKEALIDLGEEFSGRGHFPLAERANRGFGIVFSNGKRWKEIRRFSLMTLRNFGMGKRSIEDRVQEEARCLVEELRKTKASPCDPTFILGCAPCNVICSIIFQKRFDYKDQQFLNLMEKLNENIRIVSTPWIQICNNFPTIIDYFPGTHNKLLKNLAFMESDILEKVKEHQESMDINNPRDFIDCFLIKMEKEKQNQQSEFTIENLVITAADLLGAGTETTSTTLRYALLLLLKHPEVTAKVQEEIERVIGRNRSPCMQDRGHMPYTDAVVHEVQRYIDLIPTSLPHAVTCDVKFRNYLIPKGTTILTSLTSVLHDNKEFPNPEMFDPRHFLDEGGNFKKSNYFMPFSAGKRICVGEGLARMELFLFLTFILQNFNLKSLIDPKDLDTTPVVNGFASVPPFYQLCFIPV
Cytochrome P450 3A4, sequence (P08684 whole entry): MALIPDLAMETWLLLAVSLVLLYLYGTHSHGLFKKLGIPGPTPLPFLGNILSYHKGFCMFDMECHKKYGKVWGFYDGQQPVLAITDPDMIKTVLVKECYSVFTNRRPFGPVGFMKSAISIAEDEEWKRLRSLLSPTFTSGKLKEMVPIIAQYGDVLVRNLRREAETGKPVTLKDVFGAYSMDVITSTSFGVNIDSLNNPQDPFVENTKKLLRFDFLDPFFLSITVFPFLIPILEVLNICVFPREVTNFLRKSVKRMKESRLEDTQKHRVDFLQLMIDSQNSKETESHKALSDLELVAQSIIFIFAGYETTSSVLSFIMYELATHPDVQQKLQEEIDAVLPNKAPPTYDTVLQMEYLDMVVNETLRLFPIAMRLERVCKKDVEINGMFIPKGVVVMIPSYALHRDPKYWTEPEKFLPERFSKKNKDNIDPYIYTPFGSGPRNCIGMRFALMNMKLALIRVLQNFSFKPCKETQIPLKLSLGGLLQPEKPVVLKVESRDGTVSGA

On to `CC(C)CNC(=O)O`, for which the AC50 entry in data set [1] and in data set [2] was “inconclusive” in each case.
For the compound `COc1ccc(C(=O)CN(C(=O)c2ccc(Cl)cc2)N2C(=O)c3ccccc3C2=O)cc1`, the AC50 was 10 µM (inconclusive) in data set [3] and “inconclusive” in [2].
Take `O=C(OCC(=O)c1ccc([N+](=O)[O-])cc1)/C(=C\c1ccc(Cl)cc1)NC(=O)c1ccccc1`: the IC50 in data set [4] was > 80 µM (inactive). The AC50 in [3] is 0.0355 µM (inconclusive); in [5], 22.4 µM (inconclusive).
Turning to `Cc1ccn(-c2cccc(-n3ccc(C)n3)n2)n1`, the AC50 in data set [6] was 46.9 µM (active). In addition, the EC50 in data set [7] was > 67.6 µM (inactive).
Take `COc1cc(C(=O)NCCOc2cc(C)ccc2C(C)C)cc(OC)c1OC`: in data set [8], the EC50 was 3.03 µM (active). Further, the IC50 is 12 µM (active) in [9], 5.52 µM (active) in data set [10] and 5.42 µM (active) in data set [11].
On to `CC1N(C)c2cccc3cccc(c23)N1C`, for which the concentration for a half-maximal effect (EC50) was > 300 µM (not active) in data set [12] and > 300 µM (inconclusive) in data set [13]. The IC50 in data set [4] was > 80 µM (inactive); in data set [14], 25 µM (active).
As for `COc1ccc2nc(NC(=O)C3CCN(S(=O)(=O)c4cccc5nsnc45)CC3)sc2c1`, the AC50 in data set [15] was 4 µM (active); in data set [16], 3.16 µM (inconclusive); in data set [17], 65.4 µM (active); in data set [18], > 70 µM (inactive); in data set [19], 1.9 µM (active); in [20], 41.8 µM (active). Moreover, the AC50 entry in data set [2] is “inconclusive”.
In the case of `Cc1ccnc(NC(=O)c2ccc(S(=O)(=O)N3CCC(C)CC3)cc2)c1`, the AC50 in [6] was 128 µM (active).
With `COc1ccc(S(=O)(=O)NNc2nc(C)cc(C)n2)cc1Br`, the EC50 in data set [21] is > 40 µM (inactive). For the same compound, the IC50 in data set [22] is recorded as > 40 µM (not active).
`Cc1cccc(C(=O)Nc2sc3c(c2C#N)CCCCC3)c1`: the AC50 in data set [6] was 42.1 µM (active).
With `CC(C)Nc1oc(-c2cccc3ccccc23)nc1C#N`, in [6], the concentration at half-maximal activity (AC50) was 76.7 µM (active).

As usually defined, the AC50 is the concentration at which the activity in the assay is half-maximal. In general, IC50 refers to the concentration needed to halve the response being measured. Broadly, the EC50 is the concentration giving half of the maximal effect.

Source of the values: ChEMBL document CHEMBL1201862, “PubChem BioAssay data set” (2004).
